{"source": "patent US11975051B1", "about": "“Therapeutic peptides and uses thereof” (priority 2022, dated 2024)", "key": {"A-375 (Prdx6 KO) cells": {"test_system": "A-375 (Prdx6 KO) cells", "assay": "Erastin-induced ferroptotic cell death, viability", "type": "cell-based", "details": "pre-treatment followed by TVALA treatment; data not shown", "method": "(§1) Melanoma cell lines A-375, A-375 non-target, and A-375 (Prdx6 KO) cells were pre-incubated with TVALA™, washed, and treated with Erastin. Following treatment, the cells were evaluated for viability. […] When the cells were pre-treated with TVALA™, washed, and incubated with TVALA™ followed by treatment with Erastin, the cells were protected against Erastin-induced cell death. When A-375 non target cells or A-375 knock out cells were used there was no effect of pre-treatment followed by TVALA™ treatment as expected (data not shown)."}, "A-375 non-target cells": {"test_system": "A-375 non-target cells", "assay": "Erastin-induced ferroptotic cell death, viability", "type": "cell-based", "details": "pre-treatment followed by TVALA treatment; data not shown", "method": "as §1"}, "A-375 melanoma cells": {"test_system": "A-375 melanoma cells", "assay": "Erastin-induced ferroptotic cell death, viability", "type": "cell-based", "details": "washed", "method": "as §1"}, "[1]": {"assay": "In vitro comparisons of Elamipretide triacetate and TVALA", "details": "data not shown", "method": "TVALA™ may be steroid sparing in diseases that involve innate immunity and autoimmune components that are traditionally treated with steroids. For example, age-related macular degeneration is treated with steroid anti-inflammatory agents. TVALA™ is used as an adjunct to traditional therapies, decreasing or eliminating the need for steroids. Another example is for renal dialysis patients, for which TVALA™ is used as adjunctive or as a replacement to anti-inflammatory therapies. Elamipretide Triacetate is a small, mitochondrially-targeted d-tetrapeptide that is not entirely different from TVALA™, as both have two basic residues (Arg and Lys) and both have a d-Arg. Elamipretide triacetate appears to reduce the production of the toxic reactive oxygen species and stabilize cardiolipin to moderate mitochondrial disease."}, "ALS patient-derived ASCs": {"test_system": "ALS patient-derived ASCs", "assay": "Stressed ALS patient-derived ASCs treated with peptides, SeaHorse analytics (Example 6)", "type": "cell-based, human", "from_the_text": "ALS patient-derived ASCs showing hypermetabolism and lipid sequestration were stressed and treated with peptides (shown below, column 2) and effect of the peptide measured with SeaHorse analytics."}, "[2]": {"test_system": "SOD1^G93A mouse model of ALS", "assay": "6-week efficacy testing of TVALA in drinking water in the SOD1^G93A mouse model of ALS", "type": "in vivo", "method": "A 6-week efficacy testing of test article, TVALA™, in daily drinking water, in the SOD1^G93A mouse model of ALS, with neurological scoring, neuroinflammation and axonopathy outcome measures was conducted by orally dosing with 3 mg/kg or 10 mg/kg. In phrenic nerves the axons numbers are not affected at this age, however axons start to atrophy, in femoral nerves, the mice lose axons and the remaining ones are atrophied."}, "Mouse plasma stability": {"assay": "Mouse plasma stability", "type": "in vitro ADME", "details": "read-out: Mouse Plasma Stability t½"}, "[3]": {"assay": "Pharmacokinetics in mice dosed IV, SC and PO", "type": "in vivo, mouse", "details": "for half-life / bioavailability / AUC(0-inf) / Cmax: mouse, in vivo, mice"}, "[4]": {"test_system": "ALS patient derived adipose stem cells (ASCs)", "assay": "Ionomycin-stressed ALS patient derived adipose stem cells, rescue by test compound (SeaHorse)", "type": "cell-based, human", "method": "Adipose stem cells (“ASCs”) derived from fat tissue harvested from an ALS patient were glycolytic showing increased proliferation and lipid accumulation in culture. An in vitro model of mitochondrial dysfunction was initiated with ALS patient derived ASCs grown in growth media. After cells were confluent, the growth media was treated with chemical stressors, such as ionomycin. Ionomycin induces cell death, apoptosis, peroxide formation, extracellular ATP, and peroxynitrites that are related to mitochondrial dysfunction. The media was exchanged and replaced with basic DMEM with 4 mM pyruvate and no additional growth factors. Test compounds were added in an effort to rescue the ionomycin treated cells. After recovery, 6 hours, the cells were measured for viability, apoptosis, peroxides, and peroxynitrites by SeaHorse analysis. The ASC patient derived cells are a good model to investigate dysregulated mitochondrial dysfunction in disease, these effects are not apparent in all ALS patient derived iPSC fibroblast cells (data not shown)."}, "Rat microsomal stability": {"assay": "Rat microsomal stability", "type": "in vitro ADME", "details": "rat microsomes"}, "[5]": {"assay": "Pharmacokinetics in dog (PO)", "details": "in vivo, read-out: % F (PO)"}, "Dog microsomal stability": {"assay": "Dog microsomal stability", "type": "in vitro ADME", "details": "dog microsomes"}, "[6]": {"assay": "Mouse (liver) microsomal stability", "type": "in vitro ADME", "details": "for half-life: mouse, liver microsomes"}, "[7]": {"assay": "Pharmacokinetics in rat (IV, SC, PO)", "details": "in vivo"}}, "note": "“Also recorded” adds a separate entry of the source. Read-outs that look alike come from different tables or passages of the source. Where a SMILES comes first, the peptide text is derived from it. [ ]: non-standard residue; d: D form."}
{"compound": "CC(C)[C@@H](NC(=O)[C@H](N)Cc1ccc(O)cc1)C(=O)N[C@H](CC(=O)O)C(=O)N[C@H](CCCCN)C(=O)N[C@H](CCCNC(=N)N)C(=O)O", "note": "[TVALA™, H-(D-Tyr)-(D-Val)-(D-Asp)-(D-Lys)-(D-Arg)-OH] (H-[dY][dV][dD][dK][dR]-OH)", "values": [{"measurement": "effect on Erastin-induced cell death", "setting": "A-375 (Prdx6 KO) cells", "result": "no effect"}, {"measurement": "effect on Erastin-induced cell death", "setting": "A-375 non-target cells", "result": "no effect"}, {"measurement": "rescue against Erastin-induced cell death (viability)", "setting": "A-375 melanoma cells; pre-incubated with peptide, treated with Erastin", "result": "did not rescue"}, {"measurement": "protection against Erastin-induced cell death (viability)", "setting": "A-375 melanoma cells; pre-treated, incubated with peptide, followed by Erastin", "result": "protected"}, {"measurement": "immunomodulation compared with Elamipretide triacetate", "setting": "[1]", "result": "superior at immunomodulation"}, {"measurement": "target receptors compared with Elamipretide triacetate", "setting": "[1]", "result": "more target receptors"}, {"measurement": "effect of the peptide measured with SeaHorse analytics", "setting": "ALS patient-derived ASCs", "result": "superior to the other compounds"}, {"measurement": "neuroprotection on the phrenic and femoral motor axon sizes", "setting": "[2]; 3 mg/kg dose", "result": "very discrete neuroprotection"}, {"measurement": "effect on the neuroinflammatory marker GFAP (spinal cord)", "setting": "[2]; 3 mg/kg orally compared with 10 mg/kg orally", "result": "more significant effects than 10 mg/kg orally"}, {"measurement": "Femoral motor axon size", "setting": "[2]; 3 mg/kg orally, SOD1^G93A hemizygous mice, vs vehicle/controls", "result": "axons of slightly larger size; also recorded: slightly larger femoral motor axons than vehicle treated mice"}, {"measurement": "Phrenic nerve cross-section area (phrenic axon size)", "setting": "[2]; 10 mg/kg orally, SOD1^G93A hemizygous mice, vs vehicle/control", "result": "smallest axons; also recorded: smaller phrenic axons than vehicle treated mice"}, {"measurement": "brain inflammation", "setting": "[2]; oral administration, data not shown", "result": "not impacted"}, {"measurement": "half-life", "setting": "Mouse plasma stability", "result": "> 120", "unit": "min"}, {"measurement": "half-life", "setting": "[3]; IV, read-out: IV t½, mice", "result": 6.22, "unit": "min"}, {"measurement": "bioavailability", "setting": "[3]; PO, read-out: PO % F, mice", "result": 30, "unit": "%"}, {"measurement": "AUC(0-inf)", "setting": "[3]; PO, read-out: PO AUCinf", "result": 2400, "unit": "ng·h/mL"}, {"measurement": "Cmax", "setting": "[3]; PO, read-out: PO Cmax", "result": 5290, "unit": "ng/mL"}, {"measurement": "half-life", "setting": "[3]; PO, read-out: PO t½, mice", "result": 7.36, "unit": "min"}, {"measurement": "bioavailability", "setting": "[3]; SC, read-out: SC % F, mice", "result": 52, "unit": "%"}, {"measurement": "AUC(0-inf)", "setting": "[3]; SC, read-out: SC AUCinf", "result": 355, "unit": "ng·h/mL"}, {"measurement": "Cmax", "setting": "[3]; SC, read-out: SC Cmax", "result": 674, "unit": "ng/mL"}, {"measurement": "half-life", "setting": "[3]; SC, read-out: SC t½, mice", "result": 11.9, "unit": "min"}, {"measurement": "expected impact of the oral drug on the central nervous system", "setting": "[3]; oral, based on in vivo testing (Table 4)", "result": 5, "unit": "%"}, {"measurement": "comparison with TP-5 in ALS patient derived cells", "setting": "[4]", "result": "superior to TP-5"}, {"measurement": "VEGFR2 expression", "setting": "[4]; ALS patient derived cells", "result": "normalizes"}, {"measurement": "peroxides", "setting": "[4]; ALS-ASC cells in vitro", "result": "reduces"}, {"measurement": "dysregulated mitochondrial energy metabolism", "setting": "[4]; in vitro", "result": "rescues"}, {"measurement": "extracellular ATP (eATP)", "setting": "[4]; in vitro cultured ASCs from an ALS patient", "result": "decreased"}, {"measurement": "half-life", "setting": "Rat microsomal stability", "result": "> 60", "unit": "min"}, {"measurement": "bioavailability", "setting": "[5]", "result": 4.9, "unit": "%"}, {"measurement": "half-life", "setting": "Dog microsomal stability", "result": "> 60", "unit": "min"}, {"measurement": "stability in mouse liver microsomes, half-life", "setting": "[6]; mouse liver microsomes, listed as SEQ ID NO:1", "result": "greater than 120 minutes"}, {"measurement": "half-life", "setting": "[6]; mouse liver microsomes, read-out: stability in mouse liver microsomes, half-life", "result": "> 120", "unit": "min"}, {"measurement": "half-life", "setting": "[6]; mouse microsomes, read-out: Mouse Microsomal Stability t½", "result": "> 60", "unit": "min"}, {"measurement": "bioavailability", "setting": "[7]; PO, read-out: % F (PO)", "result": 6.7, "unit": "%"}, {"measurement": "bioavailability", "setting": "[7]; SC, read-out: % F (SC)", "result": 79.2, "unit": "%"}]}
